The record followed here is patent publication US20200317642A1, “AMINE-SUBSTITUTED HETEROCYCLIC COMPOUNDS AS EHMT2 INHIBITORS AND DERIVATIVES THEREOF” (Epizyme, Inc., priority 2017, published 2020).

Where two headings read alike, the source gives them in different places.

For one experiment, the target named is T1, EHMT1 (Homo sapiens, UniProt Q9H9B1).
T1 sequence (Q9H9B1 1-1298): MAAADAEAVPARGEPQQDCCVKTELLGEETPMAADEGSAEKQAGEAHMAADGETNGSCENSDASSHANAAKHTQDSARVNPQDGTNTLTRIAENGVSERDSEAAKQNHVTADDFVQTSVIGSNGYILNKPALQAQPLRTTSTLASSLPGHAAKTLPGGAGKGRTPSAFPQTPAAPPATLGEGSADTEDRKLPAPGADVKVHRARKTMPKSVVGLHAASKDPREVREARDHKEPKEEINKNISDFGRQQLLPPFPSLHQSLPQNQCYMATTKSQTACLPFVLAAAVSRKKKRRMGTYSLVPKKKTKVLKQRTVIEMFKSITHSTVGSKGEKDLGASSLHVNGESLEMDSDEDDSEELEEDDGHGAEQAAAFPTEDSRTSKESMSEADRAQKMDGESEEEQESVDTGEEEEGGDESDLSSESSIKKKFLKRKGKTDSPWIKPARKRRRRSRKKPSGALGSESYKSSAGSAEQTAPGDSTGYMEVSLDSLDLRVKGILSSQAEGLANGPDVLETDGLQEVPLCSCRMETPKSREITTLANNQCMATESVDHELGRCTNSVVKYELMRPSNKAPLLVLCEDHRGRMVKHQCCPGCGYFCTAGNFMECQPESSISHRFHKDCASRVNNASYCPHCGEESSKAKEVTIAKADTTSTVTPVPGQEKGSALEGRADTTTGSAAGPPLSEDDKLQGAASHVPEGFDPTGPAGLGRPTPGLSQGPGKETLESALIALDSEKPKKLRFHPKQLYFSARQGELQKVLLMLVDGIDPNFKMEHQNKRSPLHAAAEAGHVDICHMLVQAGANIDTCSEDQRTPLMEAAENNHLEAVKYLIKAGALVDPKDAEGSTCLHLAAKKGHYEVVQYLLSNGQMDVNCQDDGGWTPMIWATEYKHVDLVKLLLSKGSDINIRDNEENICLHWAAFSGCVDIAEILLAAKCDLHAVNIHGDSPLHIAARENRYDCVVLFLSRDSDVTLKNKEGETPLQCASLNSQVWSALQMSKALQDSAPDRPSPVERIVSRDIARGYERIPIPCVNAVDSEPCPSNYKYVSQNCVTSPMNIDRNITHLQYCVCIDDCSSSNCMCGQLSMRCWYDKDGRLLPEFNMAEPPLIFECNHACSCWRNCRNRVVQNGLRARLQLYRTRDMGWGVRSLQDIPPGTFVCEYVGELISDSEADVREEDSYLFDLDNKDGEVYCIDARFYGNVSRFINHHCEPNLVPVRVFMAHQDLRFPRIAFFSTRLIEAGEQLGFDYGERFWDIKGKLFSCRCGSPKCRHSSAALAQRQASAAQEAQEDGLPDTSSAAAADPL
The experiment in a line: EHMT1 PEP enzyme assay. In kind it is biochemical.

Experiment [1] relates to H3K9me2 in MDA-MB-231 cells. The experiment in a line: MDA-MB-231 H3K9me2 in-cell western assay (EHMT2 ICW). In kind it is cell-based. The note with it: Homo sapiens. The source says: MDA-MB-231 cell line was purchased from ATCC (Manassas, Va., USA). RPMI/Glutamax medium, Penicillin-Streptomycin, Heat Inactivated Fetal Bovine Serum, and D-PBS were purchased from Life Technologies (Grand Island, N.Y., USA). Odyssey blocking buffer, 800 CW goat anti-mouse IgG (H+L) antibody, and Licor Odyssey Infrared Scanner were purchased from Licor Biosciences, Lincoln, Nebr., USA. H3K9me2 mouse monoclonal antibody (Cat #1220) was purchased from Abcam (Cambridge, Mass., USA). 16% Paraformaldehyde was purchased from Electron Microscopy Sciences, Hatfield, Pa., USA). MDA-MB-231 cells were maintained in complete growth medium (RPMI supplemented with 10% v/v heat inactivated fetal bovine serum) and cultured at 37° C. under 5% C02. UNC0638 was purchased from Sigma-Aldrich (St. Louis, Mo., USA).
General Procedure for MDA-MB-231 HEK9me2 in-Cell Western Assay.
Compound (100 nL) was added directly to 384-well cell plate. MDA-MB-231 cells (ATCC) were seeded in assay medium (RPMI/Glutamax supplemented with 10% v/v heat inactivated fetal bovine serum and 1% Penicillin/Streptomycin, Life Technologies) at a concentration of 3,000 cells per well to a Poly-D-Lysine coated 384-well cell culture plate with 50 μL per well. Plates were incubated at 37° C., 5% CO2 for 48 hours (BD Biosciences 356697). […] After the incubation, 50 μL per well of 8% paraformaldehyde (Electron Microscopy Sciences) in PBS was added to the plates and incubated at room temperature for 20 minutes. Plates were transferred to a Biotek 406 plate washer and washed 2 times with 100 μL per well of wash buffer (1×PBS containing 0.3% Triton X-100 (v/v)). Next, 60 μL per well of Odyssey blocking buffer (Licor Biosciences) was added to each plate and incubated for 1 hour at room temperature. Blocking buffer was removed and 20 μL of monoclonal primary antibody α-H3K9me2 (Abcam) diluted 1:800 in Odyssey buffer with 0.1% Tween 20 (v/v) were added and plates were incubated overnight (16 hours) at 4° C. Plates were washed 5 times with 100 μL per well of wash buffer. Next 20 μL per well of secondary antibody was added (1:500 800 CW donkey anti-mouse IgG (H+L) antibody (Licor Biosciences), 1:1000 DRAQ5 (Cell Signaling Technology) in Odyssey buffer with 0.1% Tween 20 (v/v)) and incubated for 1 hour at room temperature. The plates were washed 5 times with 100 μL per well wash buffer then 2 times with 100 μL per well of water. Plates were allowed to dry at room temperature then imaged on a Licor Odyssey Infrared Scanner (Licor Biosciences) which measured integrated intensity at 700 nm and 800 nm wavelengths. Both 700 and 800 channels were scanned.
First, the ratio for each well was determined by:
Each plate included fourteen control wells of DMSO only treatment (Minimum Inhibition) as well as fourteen control wells (background wells) for maximum inhibition treated with control compound UNC0638 (Background wells).
The average of the ratio values for each well was calculated and used to determine the percent inhibition for each test well in the plate. Control compound was serially diluted three-fold in DMSO for a total of 10 test concentrations beginning at 1 μM. Percent inhibition was calculated as: […]
IC50 curves were generated using triplicate wells per concentration of compound. The IC50 is the concentration of compound at which measured methylation is inhibited by 50% as interpolated from the dose response curves. IC50 values were calculated using a non-linear regression (variable slope-four parameter fit model) with by the following formula:
where Top is fixed at 100% and Bottom is fixed to 0%, [I]=concentration of inhibitor, IC50=half maximal inhibitory concentration and n=Hill Slope.

Setting [2] is: Table 3, read-out: EHMT1 PEP (IC50 μM).
[3] abbreviates: Table 3, read-out: EHMT2 ICW (IC50 μM).
Where [4] appears, read: Table 3A, read-out: EHMT1 (IC50 μM).
[5] abbreviates: Table 3A, read-out: ICW (IC50 μM).

As a reminder, the IC50 is the concentration at which inhibition is half-maximal.

As to `CNc1cc(C)nc(Nc2ccc(OC)c(CN[C@@H](C)CN3CCCC3)c2)n1` [Compound 47], the results for the half-maximal inhibitory concentration (IC50) (on EHMT1 (setting [2]); in experiment [1] (setting [3])) were 0.1 to 1 µM and 1 to 10 µM, respectively.
`CNc1cc(C)nc(Nc2ccc(OC)c(CN[C@H](C)CN3CCCC3)c2)n1` [Compound 48]: the half-maximal inhibitory concentration (IC50) on EHMT1 (setting [2]) was 0.1 to 1 µM; in experiment [1] (setting [3]), 1 to 10 µM.
Take `CNc1cc(C)nc(Nc2ccc(OC)c(C#CCNCCN(C)C)c2)n1` [Compound 49]: the half-maximal inhibitory concentration (IC50) at EHMT1 (setting [2]) lay in the range of 0.1 to 1 µM; in experiment [1] (setting [3]), 1 to 10 µM.
Turning to `CNCc1cn(-c2cc(Nc3nc(C)cc(NC)n3)ccc2Cl)nn1` [Compound A1], the values for the half-maximal inhibitory concentration (IC50) (at EHMT1 (setting [4]); in experiment [1] (setting [5])) were less than 0.01 µM and 0.01 to 0.1 µM, respectively.
For `CNC1=Nc2cc(-n3cc([C@H]4CCCN4)nn3)c(Cl)cc2C12CCC2` [Compound A2R, (R)-5′-chloro-N-methyl-6′-(4-(pyrrolidin-2-yl)-1H-1,2,3-triazol-1-yl)spiro[cyclobutane-1,3′-indol]-2′-amine], the half-maximal inhibitory concentration (IC50) at EHMT1 (setting [4]) was less than 0.01 µM; in experiment [1] (setting [5]), 0.01 to 0.1 µM.
For the molecule `CNC1=Nc2cc(-n3cc([C@@H]4CCCN4)nn3)c(Cl)cc2C12CCC2` [Compound A2S, (S)-5′-chloro-N-methyl-6′-(4-(pyrrolidin-2-yl)-1H-1,2,3-triazol-1-yl)spiro[cyclobutane-1,3′-indol]-2′-amine], the figures for the IC50 (on EHMT1 (setting [4]); in experiment [1] (setting [5])) were 0.01 to 0.1 µM and more than 1 µM, respectively.
On to `CNC1=Nc2cc(-n3cc(C4CCCN4)nn3)c(Cl)cc2C12CCC2` (centres unmarked) [Compound A2], for which the concentration for half-maximal inhibition (IC50) on EHMT1 (setting [4]) is less than 0.01 µM; in experiment [1] (setting [5]), 0.1 to 1 µM.
Take `CNCc1cn(-c2c(OC)ccc(Nc3nc(C)cc(NC)n3)c2F)nn1` [Compound A3, N2-(2-fluoro-4-methoxy-3-[4-[(methylamino)methyl]-1H-1,2,3-triazol-1-yl]phenyl)-N4,6-dimethylpyrimidine-2,4-diamine]: the half-maximal inhibitory concentration (IC50) is less than 0.01 µM on EHMT1 (setting [4]) and 0.01 to 0.1 µM in experiment [1] (setting [5]).
As for `CNc1cc(C)nc(Nc2ccc(OC)c(-n3cc([C@H]4CCCN4)nn3)c2F)n1` [Compound A4R], the IC50 on EHMT1 (setting [4]) is less than 0.01 µM; in experiment [1] (setting [5]), 0.01 to 0.1 µM.
On the same counts, the results for `CNc1cc(C)nc(Nc2ccc(OC)c(-n3cc([C@@H]4CCCN4)nn3)c2F)n1` [Compound A4S] are 0.01 to 0.1 µM and 0.1 to 1 µM.
For `CNc1cc(C)nc(Nc2ccc(OC)c(-n3cc(C4CCCN4)nn3)c2F)n1` (centres unmarked) [Compound A4], the values for the IC50 (on EHMT1 (setting [4]); in experiment [1] (setting [5])) were less than 0.01 µM and 0.01 to 0.1 µM, respectively.
For the molecule `CNc1cc(C)nc(Nc2ccc(OC)c(-n3cc(CNC(C)C)cn3)c2F)n1` [Compound A5], the IC50 on EHMT1 (setting [4]) is 0.1 to 1 µM; in experiment [1] (setting [5]) it was more than 1 µM.
As for `CNc1cc(C)nc(Nc2ccc(Cl)c(-n3cc(CN)cn3)c2Cl)n1` [Compound A6], the IC50 at EHMT1 (setting [4]) was less than 0.01 µM; in experiment [1] (setting [5]), 0.01 to 0.1 µM.
`CCNCc1cnn(-c2c(OC)ccc(Nc3nc(C)cc(NC)n3)c2F)c1` [Compound A7]: the IC50 at EHMT1 (setting [4]) fell in the range of 0.01 to 0.1 µM; in experiment [1] (setting [5]) it was 0.1 to 1 µM.
Take `CNCc1cnn(-c2c(OC)ccc(Nc3nc(NC)cc(C(C)C)n3)c2F)c1` [Compound A8, N^2-(2-fluoro-4-methoxy-3-[4-[(methylamino)methyl]-1H-pyrazol-1-yl]phenyl)-N^4-methyl-6-(propan-2-yl)pyrimidine-2,4-diamine]: the results for the IC50 (on EHMT1 (setting [4]); in experiment [1] (setting [5])) were less than 0.01 µM and 0.01 to 0.1 µM, respectively.
The matching figures for `CNc1cc(C)nc(Nc2ccc(OC)c(-n3ncc4c3CCNC4)c2F)n1` [Compound A9, N2-(2-fluoro-4-methoxy-3-(4,5,6,7-tetrahydro-1H-pyrazolo[4,3-c]142yridine-1-yl)phenyl)-N4,6-dimethylpyrimidine-2,4-diamine]: 0.1 to 1 µM and 0.1 to 1 µM.
As for `CNC1=Nc2cc(-c3cc4n(n3)CCNC4)c(Cl)cc2C12CCC2` [Compound A10, 5′-chloro-N-methyl-6′-(4,5,6,7-tetrahydropyrazolo[1,5-a]pyrazin-2-yl)spiro[cyclobutane-1,3′-indol]-2′-amine], the values for the 50% inhibitory concentration (IC50) (at EHMT1 (setting [4]); in experiment [1] (setting [5])) were 0.01 to 0.1 µM and more than 1 µM, respectively.
The matching figures for `CNCc1cn(-c2cc3c(cc2Cl)C2(CCC2)C(NC)=N3)nn1` [Compound A11, 5′-chloro-N-methyl-6′-(4-((methylamino)methyl)-1H-1,2,3-triazol-1-yl)spiro[cyclobutane-1,3′-indol]-2′-amine]: less than 0.01 µM and 0.1 to 1 µM.
On the same counts, the results for `CNC1=Nc2cc(-c3cc4n(n3)CCN(C)C4)c(Cl)cc2C12CCC2` [Compound A12, 5′-chloro-N-methyl-6′-(5-methyl-4,5,6,7-tetrahydropyrazolo[1,5-a]145yrazine-2-yl)spiro[cyclobutane-1,3′-indol]-2′-amine] are 0.1 to 1 µM and more than 1 µM.
As to `CNCc1cn(-c2c(Cl)ccc(Nc3nc(C)cc(NC)n3)c2Cl)nn1` [Compound A13, N2-(2,4-dichloro-3-(4-((methylamino)methyl)-1H-1,2,3-triazol-1-yl)phenyl)-N4,6-dimethylpyrimidine-2,4-diamine], the IC50 at EHMT1 (setting [4]) is less than 0.01 µM; in experiment [1] (setting [5]) it was 0.01 to 0.1 µM.
With `CNCc1cc(-c2c(OC)ccc(Nc3nc(C)cc(NC)n3)c2F)no1` [Compound A14, N2-(2-fluoro-4-methoxy-3-[5-[(methylamino)methyl]-1,2-oxazol-3-yl]phenyl)-N4,6-dimethylpyrimidine-2,4-diamine], the IC50 at EHMT1 (setting [4]) was less than 0.01 µM; in experiment [1] (setting [5]), 0.1 to 1 µM.
`CNCc1cn(-c2cc3c(cc2Cl)C2(CCC2)C(N)=N3)nn1` [Compound A15, 5′-chloro-6′-(4-((methylamino)methyl)-1H-1,2,3-triazol-1-yl)spiro[cyclobutane-1,3′-indol]-2′-amine]: the IC50 at EHMT1 (setting [4]) is 0.01 to 0.1 µM; in experiment [1] (setting [5]) it was 0.1 to 1 µM.
